For data set [1], the system named is AP-1 site in the presence of ERα. The settings on record: cited from earlier work.
The test system of data set [2] is AP-1 site in the presence of ERβ. The settings on record: cited from earlier work.
The target in a further data set is human ERα (Homo sapiens (Human), UniProt P03372). In words: Competitive steroid binding assay, ERα.
In the next data set the target is human ERβ (Homo sapiens (Human), UniProt Q92731). Briefly: Competitive steroid binding assay, ERβ.
The nature of data set [3]: Single rising oral dose study in healthy postmenopausal volunteers. Format: in vivo, human. On the procedure: To determine the bioavailability and elimination half-life of estetrol after oral dosing in humans a single rising dosing study was performed in healthy postmenopausal volunteers. Volunteers (n=6) were randomly assigned to 0.1, 1 or 10 mg estetrol and blood samples (18 per volunteer) were obtained over a period of 72 hours. After thawing the plasma samples, liquid-liquid extraction (hexane and diethyl ether) was employed to prepare the estetrol-containing plasma samples for HPLC analysis (Perkin is Elmer 200) and tandem mass spectrometry using a PE Sciex 4000 tandem mass spectrometer and APCI interface. With each sample batch, a calibration curve with 6 calibrators was recorded.

In data set [4] the test system is DMBA-induced mammary tumours. Briefly: DMBA-induced tumour model in rats, prevention (Example 3). Format: in vivo, rat. Particulars: 8 weeks.
The subject of data set [5] is DMBA-induced mammary tumours. In words: Second DMBA trial in rats, dose-response prevention study (Example 4). It counts as in vivo, rat. The settings on record: 8 weeks. The source says: Estetrol and tamoxifen were subsequently tested in a second DMBA trial in rats to evaluate the dose-response relationships in preventing rats from developing mammary tumours. The experimental procedure as set forth in example 3 was used as a prevention study to treat the animals (12 animals per group) for 8 consecutive weeks after tumour induction with oral dosages of either estetrol or tamoxifen. DMBA-exposed rats were randomly assigned to treatment groups, receiving oral treatment as follows: • Group 1 animals received placebo oral treatment in the form of a single daily dose of 3.0 ml/kg vehicle (20% wt/vol solution of hydroxypropyl-beta-cyclodextrin in water); • Group 2 animals received tamoxifen orally at a single daily dose of 1 mg/kg; • Group 3 animals received tamoxifen orally at a single daily dose of 2 mg/kg; • Group 4 animals received tamoxifen orally at a single daily dose of 3 mg/kg; • Group 5 animals received estetrol orally at a single daily dose of 0.5 mg/kg; • Group 6 animals received estetrol orally at a single daily dose of 1.0 mg/kg; • Group 7 animals received estetrol orally at a single daily dose of 1.5 mg/kg; • Group 8 animals received estetrol orally at a single daily dose of 2.0 mg/kg; • Group 9 animals received estetrol orally at a single daily dose of 2.5 mg/kg; and • Group 10 animals received estetrol orally at a single daily dose of 3.0 mg/kg
During the treatment period of 8 weeks, the emergence of palpable tumours and number of tumours were determined weekly. The number of mammary tumours at necropsy is depicted in FIG. 2.

The subject of data set [6] is pre-existing DMBA-induced mammary tumours. In words: DMBA-induced tumour model in rats, therapeutic design, pre-existing tumours (Example 5). It counts as in vivo, rat. The method, then:
As set forth in example 3, female Sprague-Dawley rats were given 16 mg DMBA at the age of 50 days. Mammary tumour development was allowed to proceed until week 8 after DMBA treatment. Animals were subsequently allocated to one of six groups, receiving 4 weeks daily oral treatment with placebo, tamoxifen or estetrol as follows: • Group 1 animals received placebo treatment with a single daily dose of 3.0 ml/kg vehicle (20% wt/vol solution of hydroxypropyl-beta-cyclodextrin in water); • Group 2 animals were surgically castrated and received placebo treatment with 3.0 ml/kg/day vehicle; • Group 3 animals received tamoxifen at a dose of 1 mg/kg; • Group 4 animals received estetrol at a dose of 1.0 mg/kg; • Group 5 animals received estetrol at a dose of 3.0 mg/kg; • Group 6 animals received estetrol at a dose of 10.0 mg/kg. […] During therapy, the progression or disappearance of palpable mammary tumours and the size of the tumours were determined weekly. At necropsy, tumours were counted, measured and the change from baseline at the start of treatment was calculated.

Data set [7] in a line: Previous studies: agonistic models of bone resorption, hot flushing and vaginal cornification. Particulars: vaginal cornification. Format: in vivo. From the text:
Eighty-four female Sprague-Dawley rats (Harlan, The Netherlands) were group housed, maintained in a 12-hr light/dark environment, and fed a Soya Free Diet (SDS England) and water ad libitum. Animals were weighed on a weekly basis.

In data set [8] the test system is cultured endothelial cells of human umbilical cord veins. The settings on record: cited from earlier work.

Structures are written as SMILES.

For orientation: Ki means a measure of affinity in units of concentration, obtained from inhibition or displacement. Usually half-life stands for the time in which the quantity being followed falls by half.

human ERα, sequence (P03372 whole entry): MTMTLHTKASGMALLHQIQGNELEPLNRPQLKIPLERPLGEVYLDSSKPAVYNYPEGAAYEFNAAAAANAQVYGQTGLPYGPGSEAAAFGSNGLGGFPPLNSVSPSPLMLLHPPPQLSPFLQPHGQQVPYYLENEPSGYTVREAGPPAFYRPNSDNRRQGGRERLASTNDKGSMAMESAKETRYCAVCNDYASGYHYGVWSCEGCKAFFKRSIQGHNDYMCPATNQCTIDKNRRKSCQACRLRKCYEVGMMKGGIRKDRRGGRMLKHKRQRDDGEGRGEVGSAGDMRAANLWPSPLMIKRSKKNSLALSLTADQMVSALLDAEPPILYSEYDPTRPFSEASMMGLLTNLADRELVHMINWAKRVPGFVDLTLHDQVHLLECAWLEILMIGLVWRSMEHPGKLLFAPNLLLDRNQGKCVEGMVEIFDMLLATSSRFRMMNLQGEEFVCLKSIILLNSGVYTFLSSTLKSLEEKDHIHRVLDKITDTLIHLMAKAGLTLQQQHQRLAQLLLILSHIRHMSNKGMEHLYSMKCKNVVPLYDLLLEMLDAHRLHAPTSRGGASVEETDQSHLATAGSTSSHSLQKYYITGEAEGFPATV
human ERβ, sequence (Q92731 whole entry): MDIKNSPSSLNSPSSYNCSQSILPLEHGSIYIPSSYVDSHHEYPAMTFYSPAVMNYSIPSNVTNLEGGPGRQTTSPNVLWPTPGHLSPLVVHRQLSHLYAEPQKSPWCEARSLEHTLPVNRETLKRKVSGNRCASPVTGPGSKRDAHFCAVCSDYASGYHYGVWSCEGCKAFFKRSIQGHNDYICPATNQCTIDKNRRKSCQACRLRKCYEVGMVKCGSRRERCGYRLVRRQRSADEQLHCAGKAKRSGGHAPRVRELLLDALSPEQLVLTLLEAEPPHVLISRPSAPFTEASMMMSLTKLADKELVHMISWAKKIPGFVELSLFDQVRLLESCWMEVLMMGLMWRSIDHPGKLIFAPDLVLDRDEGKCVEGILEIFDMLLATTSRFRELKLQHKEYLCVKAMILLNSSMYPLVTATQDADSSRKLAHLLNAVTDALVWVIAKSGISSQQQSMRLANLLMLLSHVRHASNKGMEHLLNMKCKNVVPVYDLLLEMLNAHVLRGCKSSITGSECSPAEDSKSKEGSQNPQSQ

On to `C[C@]12CC[C@@H]3c4ccc(O)cc4CC[C@H]3[C@@H]1CC[C@@H]2O` [E2, 17β-estradiol], for which the “Effect on AP-1 site” value is “activates” in [1] and “inhibits” in data set [2].

As for `C[C@]12CC[C@@H]3c4ccc(O)cc4CC[C@H]3[C@@H]1[C@@H](O)[C@@H](O)[C@@H]2O` [E4, 1,3,5 (10)-estratrien-3,15α,16α,17β-tetrol], the Ki at human ERα amounted to 4.9 nM; on human ERβ, 19 nM. Besides, the “Relative ERα/ERβ preference” value on human ERα (preference for binding to ERα protein versus ERβ protein) was 400%. Moreover, the half-life in data set [3] (female, human, plasma, po, oral dosing, human postmenopausal subjects, read-out: Elimination half-life) was over 20 h. In data set [3] (oral 0.1, 1, 10 mg, plasma), the “AUC values, dose-linearity” value is “good dose-linearity”. Besides, the Tolerability entry in [3] (oral dose increased from 0.1 to 1 and 10 mg, postmenopausal volunteers) is “Good tolerability”. The Oral absorption entry in [3] (over the entire dose range 0.1-10 mg oral) is listed as “well absorbed”. Moreover, the “Efficacy in preventing growth of DMBA-induced tumours relative to tamoxifen” value in [4] (E4 […] vs tamoxifen 3 mg/kg/day orally) was “as effective as tamoxifen”. The Mammary tumour formation entry in data set [5] (estetrol 0.5-3.0 mg/kg/day orally) is “dose-dependent inhibition of mammary tumour formation”. For the same compound, the “Protection from developing tumours” value in [5] (estetrol 2.5 and 3.0 mg/kg/day orally) is “completely protected rats from developing tumours”. Also, the “Tumour number at necropsy” value in [6] (estetrol 1 mg/kg/day orally 4 weeks, n=9, 16 at start of treatment) was 23; in data set [6] (estetrol 3 mg/kg/day orally 4 weeks, n=9, 16 at start of treatment), 15; in data set [6] (estetrol 10 mg/kg/day orally 4 weeks, n=10, 18 at start of treatment) it was 7. Moreover, the “Tumour size, percentage change from baseline, net group effect” value in data set [6] (estetrol 1, 3, 10 mg/kg/day orally 4 weeks) was “dose dependent pronounced tumour size reduction”. Besides, the “Efficacy, net disappearance of mammary tumours” value in [6] (estetrol orally 4 weeks, started 8 weeks after DMBA) is “comparable to ovariectomy”. For the same compound, the “In vivo estrogenicity, relative potency” value in data set [7] (0.125 mg/kg/day EE vs […] E4, hot flushing) is on record as “equipotency”; in data set [7] ([…] EE vs 0.5 mg/kg/day E4, hot flushing) it was “equipotency”. Also, the “Effect on proliferation of vascular endothelial cells” value in [8] is “No significant effect”.

On to `C[C@]12CC[C@@H]3c4ccc(O)cc4C[C@@H](CCCCCCCCC[S+]([O-])CCCC(F)(F)C(F)(F)F)[C@H]3[C@@H]1CC[C@@H]2O` (stereo partly shown) [ICI-182,780], for which the “Effect on AP-1 site” value in [1] is reported as “inhibit”; in [2], “stimulate”.

In the case of `O=C(c1ccc(OCCN2CCCCC2)cc1)c1c(-c2ccc(O)cc2)sc2cc(O)ccc12` [raloxifene], the “Effect on AP-1 site” value in data set [1] is listed as “inhibit”; in data set [2], “stimulate”.

Regarding `CC/C(=C(\c1ccccc1)c1ccc(OCCN(C)C)cc1)c1ccccc1` [tamoxifen, reference compound], the “Development of mammary tumours” value in [4] (tamoxifen 3 mg/kg/day orally) is given as “inhibiting the development of mammary tumours”. Further, in [5] (tamoxifen 1, 2 and 3 mg/kg/day orally), the Palpable tumours developed entry is “In none of the tamoxifen groups (1, 2, and 3 mg/kg/day) palpable tumours developed”. In addition, the “Tumour size, percentage change from baseline, net group effect” value in data set [6] (tamoxifen 1 mg/kg/day orally 4 weeks) is on record as “increase in tumour size as net group effect”. For the same compound, the “Efficacy against further development and progression of mammary tumours” value in data set [6] (tamoxifen 1 mg/kg/day orally 4 weeks, started 8 weeks after DMBA) is on record as “ineffective”. For the same compound, in data set [6] (tamoxifen 1 mg/kg/day orally 4 weeks, n=8, 15 at start of treatment), the “Tumour number at necropsy” value is reported as 19. For the same compound, the figures for the “Effect on AP-1 site” value in data set [1] and in [2] were “inhibit” and “stimulate”, respectively.

Source of the values: US9034854B2, “Pharmaceutical composition comprising estetrol derivatives for use in cancer therapy” (priority 2002, dated 2015).
